Structures are written as SMILES.

Squalene epoxidase, sequence (A7L861 whole entry): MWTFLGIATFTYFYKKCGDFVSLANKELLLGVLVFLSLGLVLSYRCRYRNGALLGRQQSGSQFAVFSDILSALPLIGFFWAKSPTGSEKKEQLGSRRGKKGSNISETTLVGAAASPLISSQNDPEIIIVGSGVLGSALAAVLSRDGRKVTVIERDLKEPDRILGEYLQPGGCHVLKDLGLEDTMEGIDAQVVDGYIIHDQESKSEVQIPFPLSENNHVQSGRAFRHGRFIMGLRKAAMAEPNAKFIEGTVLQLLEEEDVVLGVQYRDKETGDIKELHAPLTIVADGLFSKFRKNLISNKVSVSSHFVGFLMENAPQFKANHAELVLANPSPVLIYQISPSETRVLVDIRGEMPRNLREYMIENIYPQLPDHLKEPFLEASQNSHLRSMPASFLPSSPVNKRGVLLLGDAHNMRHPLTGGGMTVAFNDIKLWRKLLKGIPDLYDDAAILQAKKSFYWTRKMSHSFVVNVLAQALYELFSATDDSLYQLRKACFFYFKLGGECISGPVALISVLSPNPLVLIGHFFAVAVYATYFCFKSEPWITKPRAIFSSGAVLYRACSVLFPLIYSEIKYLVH

The target in the first experiment is T1, Squalene monooxygenase (Rattus norvegicus, UniProt P52020). In words: Inhibition of C-terminal hexahistidine-tagged rat recombinant squalene epoxidase without N-terminal putative membrane domain expressed in Escherichia coli.
T1 sequence (P52020 whole entry, the tested form may be a part): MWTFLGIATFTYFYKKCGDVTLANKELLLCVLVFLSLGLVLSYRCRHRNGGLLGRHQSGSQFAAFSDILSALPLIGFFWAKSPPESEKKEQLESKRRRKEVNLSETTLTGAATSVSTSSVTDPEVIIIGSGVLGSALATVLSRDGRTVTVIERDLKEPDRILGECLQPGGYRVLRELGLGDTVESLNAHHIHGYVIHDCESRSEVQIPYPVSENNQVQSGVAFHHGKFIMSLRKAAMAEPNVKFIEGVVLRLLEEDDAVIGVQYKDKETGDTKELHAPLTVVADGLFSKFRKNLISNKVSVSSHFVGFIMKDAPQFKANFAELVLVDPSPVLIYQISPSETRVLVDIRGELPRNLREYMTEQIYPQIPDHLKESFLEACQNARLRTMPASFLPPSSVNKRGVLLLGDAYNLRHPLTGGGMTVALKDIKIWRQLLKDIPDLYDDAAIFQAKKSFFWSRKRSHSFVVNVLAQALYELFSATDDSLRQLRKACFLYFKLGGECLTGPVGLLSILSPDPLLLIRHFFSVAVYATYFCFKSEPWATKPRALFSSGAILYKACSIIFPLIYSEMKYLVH
As for `CCCCCCCCCCCCCCOC(=O)c1cc(O)c(O)c(O)c1-c1c(C(=O)OCCCCCCCCCCCCCC)cc(O)c(O)c1O`, the half-inhibitory concentration (IC50) stood at 1.5 µM.

As to `O=C(O[C@@H]1O[C@@H]2COC(=O)c3cc(O)c(O)c(O)c3-c3c(cc(O)c(O)c3O)C(=O)O[C@H]2[C@H](OC(=O)c2cc(O)c(O)c(O)c2)[C@H]1OC(=O)c1cc(O)c(O)c(O)c1)c1cc(O)c(O)c(O)c1` [EUGENIIN], the IC50 turned out to be 1.6 µM.

For the compound `O=C1OC[C@H]2O[C@@H](O)[C@H](O)[C@@H](O)[C@@H]2OC(=O)c2cc(O)c(O)c(O)c2-c2c(O)c(O)c3oc(=O)c4c(c(O)c(O)c5oc(=O)c2c3c54)-c2c1cc(O)c(O)c2O` [PUNICALIN], the IC50 amounted to 20 µM.

`CCCCCCCCOC(=O)c1cc(O)c(O)c(O)c1` [OCTYL_GALLATE]: the IC50 came to 0.83 µM.

For the compound `CCCCCCCCCCCCCCCCOC(=O)c1cc(O)c(O)c(O)c1` [HEXADECYL GALLATE], the IC50 came out at 0.59 µM.

For the compound `O=C(OC[C@H]1O[C@@H](OC(=O)c2cc(O)c(O)c(O)c2)[C@H](OC(=O)c2cc(O)c(O)c(O)c2)[C@@H](OC(=O)c2cc(O)c(O)c(O)c2)[C@@H]1OC(=O)c1cc(O)c(O)c(O)c1Oc1cc2c(c(O)c1O)-c1c(cc(O)c(O)c1O)C(=O)O[C@H]1[C@H](OC(=O)c3cc(O)c(O)c(O)c3)[C@@H](OC(=O)c3cc(O)c(O)c(O)c3)[C@H](OC(=O)c3cc(O)c(O)c(O)c3)O[C@@H]1COC2=O)c1cc(O)c(O)c(O)c1` [PHYLLYRAEOIDIN], the IC50 is 100 µM.

In the case of `O=C(O)c1cc(O)c(O)c(O)c1` [GALLIC ACID], the IC50 is 73 µM.

As for `O=C(O)C[C@H]1C(=O)O[C@H]2[C@H](OC(=O)c3cc(O)c(O)c(O)c3)[C@@H](OC(=O)c3cc(O)c(O)c4c3[C@H]1[C@H](O)C(=O)O4)[C@H](OC(=O)c1cc(O)c(O)c(O)c1)O[C@@H]2COC(=O)c1cc(O)c(O)c(O)c1` [CHEBULINIC ACID], the IC50 worked out at 12 µM.

Turning to `O=C1O[C@H]2[C@H](O)[C@@H](CO)OC(O)[C@@H]2OC(=O)c2cc(O)c(O)c(O)c2-c2c1cc(O)c(O)c2O` (some centres undefined), the IC50 amounted to 32 µM.

Take `O=C1OC[C@H]2OC(=O)c3cc(O)c(O)c(O)c3-c3c(O)c(O)c(O)c4c3C(=O)O[C@H]([C@H]3OC(=O)c5c-4c(O)c(O)c(O)c5[C@H]3O)[C@@H]2OC(=O)c2cc(O)c(O)c(O)c2-c2c1cc(O)c(O)c2O` [CASTALAGIN]: the IC50 came out at 30 µM.

For `O=C(OC[C@H]1O[C@@H](OC(=O)c2cc(O)c(O)c(O)c2)[C@H](OC(=O)c2cc(O)c(O)c(O)c2)[C@@H](OC(=O)c2cc(O)c(O)c(O)c2)[C@@H]1OC(=O)c1cc(O)c(O)c(O)c1)c1cc(O)c(O)c(O)c1` [PENTAGALLOYL GLUCOSE], the IC50 is 0.47 µM.

With `COC(=O)c1cc(O)c(O)c(O)c1-c1c(C(=O)OC)cc(O)c(O)c1O`, the IC50 was found to be 16.4 µM.

As for `O=C(O[C@@H]1COC(=O)c2cc(O)c(O)c(O)c2-c2c(cc(O)c(O)c2O)C(=O)O[C@H]1[C@@H]1OC(=O)c2cc(O)c(O)c(O)c2-c2c(O)c(O)c(O)c3c2C(=O)O[C@H]1[C@@H]3O)c1cc(O)c(O)c(O)c1` [CASUARININ], the IC50 came out at 34 µM.

As to `CCCCOC(=O)c1cc(O)c(O)c(O)c1-c1c(C(=O)OCCCC)cc(O)c(O)c1O`, the concentration for half-maximal inhibition (IC50) stood at 7.9 µM.

Consider `O=C(O[C@@H]1O[C@@H]2COC(=O)c3cc(O)c(O)c(O)c3-c3c(cc(Oc4c(C(=O)O)cc(O)c(O)c4O)c(O)c3O)C(=O)O[C@H]([C@H]1O)[C@@H]2O)c1cc(O)c(O)c(O)c1` [MALLOTINIC ACID], for which the IC50 was found to be 8 µM.

With `O=C(O)C[C@@H]1C(=O)O[C@H]2[C@@H]3OC(=O)c4cc(O)c(O)c(O)c4-c4c(cc(O)c(O)c4O)C(=O)OC[C@H]2O[C@@H](OC(=O)c2cc(O)c(O)c(O)c2)[C@@H]3OC(=O)c2cc(O)c(O)c3c2[C@H]1[C@H](O)C(=O)O3` [CHEBULAGIC ACID], the IC50 was 3.2 µM.

For `O=C(O[C@@H]1O[C@@H]2COC(=O)c3cc(O)c(O)c(O)c3-c3c(cc(O)c(O)c3O)C(=O)O[C@H]([C@H]1O)[C@@H]2O)c1cc(O)c(O)c(O)c1` [CORILAGIN], the IC50 amounted to 4 µM.

Turning to `CCOC(=O)c1cc(O)c(O)c(O)c1-c1c(C(=O)OCC)cc(O)c(O)c1O`, the IC50 worked out at 13.3 µM.

Turning to `CCCCCCCCOC(=O)c1cc(O)c(O)c(O)c1-c1c(C(=O)OCCCCCCCC)cc(O)c(O)c1O`, the IC50 is 0.83 µM.

For the compound `CCCCCCCCCCOC(=O)c1cc(O)c(O)c(O)c1-c1c(C(=O)OCCCCCCCCCC)cc(O)c(O)c1O`, the IC50 was 1.1 µM.

On to `O=C(O[C@@H]1O[C@@H]2COC(=O)c3cc(O)c(O)c(O)c3-c3c(cc(O)c(O)c3O)C(=O)O[C@H]2[C@@H]2OC(=O)c3cc(O)c(O)c(O)c3-c3c(cc(O)c(O)c3O)C(=O)O[C@@H]12)c1cc(O)c(O)c(O)c1`, for which the IC50 amounted to 7 µM.

As to `O=C1O[C@@H]2[C@@H](OC(=O)c3cc(O)c(O)c(O)c3-c3c1cc(O)c(O)c3O)[C@H](O)O[C@@H]1COC(=O)c3cc(O)c(O)c(O)c3-c3c(O)c(O)c4oc(=O)c5c(c(O)c(O)c6oc(=O)c3c4c65)-c3c(cc(O)c(O)c3O)C(=O)O[C@@H]21` [PUNICALAGIN], the IC50 was 40 µM.

For the compound `O=C1O[C@H]2[C@@H]3OC(=O)c4cc(Oc5c(C(=O)O)cc(O)c(O)c5O)c(O)c(O)c4-c4c(cc(O)c(O)c4O)C(=O)OC[C@H]2O[C@@H](OC(=O)c2cc(O)c(O)c(O)c2)[C@@H]3OC(=O)c2cc(O)c(O)c3c2[C@@H]2C1=CC(=O)[C@](O)(O3)C2(O)O` [MALLOTUSINIC ACID], the IC50 stood at 8 µM.

For the compound `O=C(O[C@@H]1O[C@@H]2COC(=O)c3cc(O)c(O)c(O)c3-c3c(O)c(O)c(O)c(Oc4cc(C(=O)O[C@@H]5O[C@@H]6COC(=O)c7cc(O)c(O)c(O)c7-c7c(cc(O)c(O)c7O)C(=O)O[C@H]6[C@@H]6OC(=O)c7cc(O)c(O)c(O)c7-c7cc(O)c(O)c(O)c7C(=O)O[C@@H]56)cc(O)c4O)c3C(=O)O[C@H]2[C@@H]2OC(=O)c3cc(O)c(O)c(O)c3-c3c(cc(O)c(O)c3O)C(=O)O[C@@H]12)c1cc(O)c(O)c(O)c1`, the IC50 is 12 µM.

Regarding `CCCCCCCCCCCCCCCCOC(=O)c1cc(O)c(O)c(O)c1-c1c(C(=O)OCCCCCCCCCCCCCCCC)cc(O)c(O)c1O`, the IC50 worked out at 2.5 µM.

Consider `O=C1OC[C@H]2OC(O)[C@@H]3OC(=O)c4cc(O)c(O)c(O)c4-c4c(cc(O)c(O)c4O)C(=O)O[C@H]3[C@@H]2OC(=O)c2cc(O)c(O)c(O)c2-c2c1cc(O)c(O)c2O` (some centres undefined) [PEDUNCULAGIN], for which the half-maximal inhibitory concentration (IC50) is 2 µM.

On to `O=C1O[C@H]2[C@H](O)[C@@H](OC(=O)c3cc(O)c(O)c4c3[C@@H]3C1=CC(=O)C(O)(O)C3(O)O4)[C@H](OC(=O)c1cc(O)c(O)c(O)c1)O[C@@H]2CO` (some centres undefined) [FUROSIN], for which the IC50 was found to be 10 µM.

In the case of `O=C1O[C@H]2[C@@H]3OC(=O)c4cc(O)c(O)c(O)c4-c4c(cc(O)c(O)c4O)C(=O)OC[C@H]2O[C@@H](OC(=O)c2cc(O)c(O)c(O)c2)[C@@H]3OC(=O)c2cc(O)c(O)c3c2[C@@H]2C1=CC(=O)[C@](O)(O3)C2(O)O` [GERANIIN], the IC50 worked out at 4.1 µM.

Take `CCCCCCOC(=O)c1cc(O)c(O)c(O)c1-c1c(C(=O)OCCCCCC)cc(O)c(O)c1O`: the IC50 turned out to be 0.93 µM.

With `CCOC(=O)c1cc(O)c(O)c(O)c1` [ETHYLGALLATE], the IC50 was found to be 4.2 µM.

`CCCCCCCCCCCCOC(=O)c1cc(O)c(O)c(O)c1-c1c(C(=O)OCCCCCCCCCCCC)cc(O)c(O)c1O`: the IC50 was found to be 1.3 µM.

Consider `CCCCCCCCCCCCCCCCCCOC(=O)c1cc(O)c(O)c(O)c1-c1c(C(=O)OCCCCCCCCCCCCCCCCCC)cc(O)c(O)c1O`, for which the IC50 was 47 µM.

Turning to `O=c1oc2c(O)c(O)cc3c(=O)oc4c(O)c(O)cc1c4c23` [ELLAGIC ACID], the 50% inhibitory concentration (IC50) came out at 2 µM.

Another experiment concerns the target Squalene epoxidase (Sus scrofa, UniProt A7L861). As to the kind of experiment: Inhibition of pig squalene epoxidase.
`CC(C)=CCC/C(C)=C/CC/C(C)=C/CC/C=C(\C)CC/C=C(\C)CCCNC1CC1` [TRISNORSQUALENE CYCLOPROPYLAMINE] returned an IC50 of 2 µM.

The compound `CC(C)=CCC/C(C)=C/CC/C(C)=C/CC/C=C(\C)CC/C=C(\C)CCCO` [TRISNORSQUALENE ALCOHOL] had a 50% inhibitory concentration (IC50) of 4 µM.

A further experiment has as its target T1, Squalene monooxygenase. In words: Inhibition of rat squalene epoxidase.
As for `O=C(O[C@@H]1[C@@H](c2c(O)cc(O)c3c2O[C@H](c2ccc(O)c(O)c2)[C@H](OC(=O)c2cc(O)c(O)c(O)c2)C3)c2c(O)cc(O)cc2O[C@@H]1c1ccc(O)c(O)c1)c1cc(O)c(O)c(O)c1`, the IC50 came to 0.54 µM.

The compound `O=C(O[C@@H]1Cc2c(O)cc(O)cc2O[C@@H]1c1cc(O)c(O)c(O)c1-c1c([C@H]2Oc3cc(O)cc(O)c3C[C@H]2OC(=O)c2cc(O)c(O)c(O)c2)cc(O)c(O)c1O)c1cc(O)c(O)c(O)c1` [THEASINENSIN A] came in with an IC50 of 0.13 µM.

For `CC(C)=CCC/C(C)=C/CC/C(C)=C/CC/C=C(\C)CC/C=C(\C)CCC=C(F)F` [TRISNORSQUALENE DIFLUOROMETHYLIDENE], it took 5.4 µM to reach half-maximal inhibition (IC50).

Regarding `O=C(OC[C@H]1O[C@@H](OC(=O)c2cc(O)c(O)c(O)c2)[C@H](OC(=O)c2cc(O)c(O)c(O)c2)[C@@H](O)[C@@H]1O)c1cc(O)c(O)c(O)c1`, the IC50 was 0.63 µM.
